Experimental data from patent publication US7419944B2, “Aqueous disinfecting systems” (Novartis AG, priority 2000, dated 2008).

Assays:
[1] = test system: Candida albicans; test: Semi-quantitative screen of common buffers plus approx. 1.2 ppm PHMB for antimicrobial activity; assay type: cell-based; conditions: for log reduction: buffer of equal molarity plus approx. 1.2 ppm PHMB, Candida albicans approx. 4x10^5 cfu/ml, estimated visually, in duplicate; for log reduction / estimated relative antimicrobial activity: 4.0 hour exposure; for estimated relative antimicrobial activity: buffer plus approx. 1.2 ppm PHMB, Candida albicans
Description: In this example common buffers plus approximately 1.2 ppm PHMB are evaluated for antimicrobial activity against Candida albicans. The pH and molarity of each solution was adjusted to approximately the same values. In that log reductions are estimated by visual observation of solution color and/or pellet formation in the bottom of the test tube, the test is semi-quantitative. All tests were performed in duplicate. All of the biological buffers shown in are described in Biochemicals and Reagents, Sigma-Aldrich CO., 2000-2001 edition Sigma-Aldrich, or online at URL sigma-aldrich.com.
Tubes of sterile solutions of buffer of equal molarity plus approxiamately 1.2 ppm PHMB are challenged with a suspension of Candida albicans at approx. 4×10^5 cfu/ml. Following 4.0 hour exposure, aliquots of each test solution are serially diluted to 10^−5 in DEB. Following approx. 40 hours incubation at ˜32° C., the tubes are observed for discoloration of the DEB and for a pellet in the 10^−5 tube. The entire study is then performed in duplicate.

[2] = cited from earlier work

Row | Compound | log reduction [1] | further results
1 | NC(=O)CNCCS(=O)(=O)O [ACES] | <1 log | 
2 | NC(=O)CN(CC(=O)O)CC(=O)O [ADA] | NONE | 
3 | O=S(=O)(O)CCN(CCO)CCO [BES] | NONE | 
4 | OCC(CO)(CO)NCCCNC(CO)(CO)CO [BIS-TRIS propane, 1,3-bis(tris[hydroxymethyl]methylamino)propane] | 2-3 log | pH range useful as a buffering agent ([2]; aqueous solutions): 6.3-9.3; pKa1 ([2]; dissociation constant): 6.8; pKa2 ([2]; dissociation constant): 9.5; estimated relative antimicrobial activity [1]: superior activity; antimicrobial activity compared with solutions employing any of the other buffering agents ([1]; screening study of 15 biological buffers with polyhexamethylene biguanide or alexidine): significantly higher
5 | OCCN(CCO)C(CO)(CO)CO [BIS-TRIS] | 1 log | estimated relative antimicrobial activity [1]: better activity than phosphate
6 | O=S(=O)(O)CC(O)CN(CCO)CCO (stereo not shown) [DIPSO] | <1 log | 
7 | O=S(=O)(O)CCN1CCN(CCO)CC1 [HEPES] | <1 log | 
8 | O=S(=O)(O)CCCCN1CCOCC1 [MOBS] | <1 log | 
9 | O=S(=O)(O)CC(O)CN1CCOCC1 (stereo not shown) [MOPSO] | NONE | 
10 | O=S(=O)(O)CCCN1CCOCC1 [MOPS] | NONE | 
11 | O=S(=O)(O)CCN1CCN(CCS(=O)(=O)O)CC1 [PIPES] | NONE | 
12 | O=S(=O)(O)CC(O)CNC(CO)(CO)CO (stereo not shown) [TAPSO] | 1 log | estimated relative antimicrobial activity [1]: better activity than phosphate
13 | O=S(=O)(O)CCNC(CO)(CO)CO [TES] | <1 log | 
14 | Borate | 2-3 log | estimated relative antimicrobial activity [1]: superior activity
